Key:
ICR mice = test: EPO protein expression in mice after intravenous EPO mRNA lipid nanoparticles; assay type: in vivo; conditions: mRNA 0.1 mg/kg, plasma 6 hours after administration
Method: (§1) The compounds described in Table 1, the neutral lipid, cholesterol (product name: Cholesterol HP; NIPPON FINE CHEMICAL CO., LTD.), and 1,2-dimyristoyl-rac-glycero-3-(methylpolyoxyethylene 2000) (hereinafter, called DMG-PEG2000) (product name: SUNBRIGHT® GM-020; NOF corporation) were dissolved in ethanol at a molar ratio of ionized lipid:neutral lipid:cholesterol:DMG-PEG2000=50:10:38.5:1.5 mol % such that the total lipid concentration was 12.5 mmol/L, to obtain an oil phase.
(§2) As the neutral lipid, 1,2-distearoyl-sn-glycero-3-phosphocholine (product name: COATSOME® MC-8080; NOF corporation) (hereinafter, DSPC), or L-α-dioleoylphosphatidylethanolamine (hereinafter, DOPE) (product name: COATSOME® MC-8181; NOF corporation) was used.
(§3) EPO mRNA (product name: CleanCap EPO mRNA (5 moU); TriLink) was diluted with 50 mmol/L citrate buffer having a pH 4.0 such that the weight ratio of total lipid concentration to mRNA concentration is about 20:1 to 64:1, thereby obtaining a water phase. Then, the water phase and the oil phase were mixed together using NanoAssemblr (Precision NanoSystems) such that the volume ratio of water phase:oil phase was 3:1. The mixed solution was diluted 2-fold with any of phosphate buffered physiological saline (PBS), water, or a 20 mmol/L Tris buffer solution (pH 7.4) to obtain a dispersion liquid of mRNA lipid nanoparticles. The dispersion liquid was dialyzed with 20 mmol/L Tris buffer solution (pH 7.4) containing 8% sucrose using a dialysis cassette (Slide-A-Lyzer G2, MWCO: 10 kD, Thermo Fisher Scientific) to remove ethanol, thereby obtaining EPO mRNA-encapsulating lipid nanoparticles.
The dispersion liquid of mRNA lipid nanoparticles prepared in above <Preparation of EPO mRNA-encapsulating lipid nanoparticles> was intravenously administered to ICR mice at a mRNA dosage of 0.1 mg/kg. 6 hours after the administration, blood was collected from the caudal vena cava, thereby obtaining plasma. The human EPO […] was quantified by using the obtained blood plasma and Erythropoietin (EPO) Human Elisa Kit (Abcam.plc). The quantitative value is described as a relative amount of EPO protein in a case where Comparative Example 1 is 1.

[1] = Particle size of EPO mRNA-encapsulating lipid nanoparticles; assay type: physicochemical
Method: as §1, §2, §3
The particle size of the mRNA-encapsulating lipid nanoparticles was measured by 5-fold diluting the dispersion liquid of lipid nanoparticle with phosphate buffered physiological saline (PBS) using a particle size measurement device NanoSaqla (Otsuka Electronics Co., Ltd.).

EPO mRNA = test: mRNA encapsulation rate of mRNA lipid nanoparticles; assay type: physicochemical
Method: as §1, §2, §3
EPO mRNA was diluted with MilliQ water to prepare a diluted sample in 2-fold dilution series from 100 µg/mL to […], and a calibration curve solution was prepared. 50 μL of the calibration curve solution or the mRNA lipid nanoparticles was mixed with 450 μL of methanol to prepare a measurement solution.
The absorbance of each measurement solution at 260 nm and 330 nm was measured using a UV plate reader (Multiskan Go, Thermo Fisher Scientific), the absorbance at 330 nm was subtracted from the absorbance at 260 nm, and the result was defined as the absorbance of each measurement solution. The total […] nucleic acid concentration was calculated from the calibration curve using the absorbance of each sample measurement solution.
The concentration of the outer water phase nucleic acid was quantified by a standard addition method using a QuanT-iT RiboGreen RNA Assay Kit (Thermo Fisher Scientific). First, a 20× TE buffer included in the above kit was diluted with water, thereby obtaining a 1×TE buffer. TE represents Tris/EDTA (ethylenediaminetetraacetic acid). EPO mRNA was diluted with a TE buffer such that the final concentration was 0 to 400 ng/mL to prepare a nucleic acid diluted series. 10 μL of mRNA lipid nanoparticles diluted 5-fold with TE buffer and 90 µL of a nucleic acid dilution series were mixed in a 96-well plate, 100 μL of a Ribogreen reagent diluted 200-fold with TE buffer was added to each well, and then fluorescence (excitation wavelength: 485 nm, fluorescence wavelength: 535 nm) was measured using a fluorescence plate reader (Infinite 200 Pro M nano+, TECAN). From the obtained results, the outer water phase nucleic acid concentration of each measurement solution was calculated according to the standard addition method.
By using the quantification results of the total mRNA concentration and the mRNA concentration in the outer water phase that were obtained through the above steps, the mRNA encapsulation rate of the mRNA lipid nanoparticles was calculated according to the following Equation. […]

[2] = neutral lipid DOPE, Lipid/Nucleic acid (wt/wt) 64, Comparative Example 1 is 1
[3] = neutral lipid DSPC, Lipid/Nucleic acid (wt/wt) 20, Comparative Example 1 is 1
[4] = LNP with neutral lipid DOPE, mixed solution PBS, Lipid/Nucleic acid (wt/wt) 64
[5] = LNP with neutral lipid DSPC, mixed solution 20 mM Tris, Lipid/Nucleic acid (wt/wt) 20
[6] = LNP with neutral lipid DSPC, mixed solution PBS, Lipid/Nucleic acid (wt/wt) 20
[7] = LNP with neutral lipid DSPC, mixed solution Water, Lipid/Nucleic acid (wt/wt) 20

| Structure (SMILES) | Particle size (nm) [1, 4] [nm] | Particle size (nm) [1, 5] [nm] | Particle size (nm) [1, 6] [nm] | Particle size (nm) [1, 7] [nm] | Nucleic acid encapsulation rate (%) (EPO mRNA; [4]) | Nucleic acid encapsulation rate (%) (EPO mRNA; [5]) | Nucleic acid encapsulation rate (%) (EPO mRNA; [6]) | Nucleic acid encapsulation rate (%) (EPO mRNA; [7]) | Relative amount of EPO protein (to Comparative Example 1) (ICR mice; [2]) | Relative amount of EPO protein (to Comparative Example 1) (ICR mice; [3]) |
| --- | --- | --- | --- | --- | --- | --- | --- | --- | --- | --- |
| CCCCCCN(CCCCC(=O)OCC(CCCCC)CCCCC)C(=O)OCCN(CCOC(=O)N(CCCCCC)CCCCC(=O)OCC(CCCCC)CCCCC)CCN(CC)CC [Example 4, bis(2-pentylheptyl) 11-(2-(diethylamino)ethyl)-6,16-dihexyl-7,15-dioxo-8,14-dioxa-6,11,16-triazahenicosanedioate] | 109.5 | 96 | 94 | 93 | >99 | 91 | 92 | 91 | 13.62 | 12.27 |
| CCCCCCC(CCCCCC)COC(=O)CCCCN(CCCCCC)C(=O)OCCN(CCOC(=O)N(CCCCCC)CCCCC(=O)OCC(CCCCCC)CCCCCC)CCN(CC)CC [Example 5, Bis(2-hexyloctyl) 11-(2-(diethylamino)ethyl)-6,16-dihexyl-7,15-dioxo-8,14-dioxa-6,11,16-triazahenicosanedioate] | 106.8 |  | 88 |  | 99 |  | 93 |  | 11.74 | 9.14 |
| CCCCCCC(CCCC)COC(=O)CCCCN(CCCCCC)C(=O)OCCN(CCOC(=O)N(CCCCCC)CCCCC(=O)OCC(CCCC)CCCCCC)CCN(CC)CC (stereo not shown) [Example 17, Bis(2-butyloctyl) 11-(2-(diethylamino)ethyl)-6,16-dihexyl-7,15-dioxo-8,14-dioxa-6,11,16-triazahenicosanedioate] |  |  | 165 |  |  |  | 80 |  |  | 5.76 |
| CCCCCCCCCCCC(=O)OCCN(CCOC(=O)CCCCCCCCCCC)C(=O)OCCN(CCOC(=O)N(CCOC(=O)CCCCCCCCCCC)CCOC(=O)CCCCCCCCCCC)CCN(CC)CC [Example 20, 2-(2-(2-(bis(2-dodecanoyloxyethyl)carbamoyloxy)ethyl-(2-(diethylamino)ethyl)amino)ethoxycarbonyl-(2-dodecanoyloxyethyl)amino)ethyl dodecanoate] |  |  | 151 |  |  |  | 82 |  |  | 1.63 |
| CCCCCCC(CCCCCC)COC(=O)CCCCN(CCCC)C(=O)OCCN(CCOC(=O)N(CCCC)CCCCC(=O)OCC(CCCCCC)CCCCCC)CCN(CC)CC [Example 23, Bis(2-hexyloctyl) 6,16-dibutyl-11-(2-(diethylamino)ethyl)-7,15-dioxo-8,14-dioxa-6,11,16-triazahenicosanedioate] |  |  | 180 |  |  |  | 79 |  |  | 1.61 |
| CCCCCCC(CCCCCC)COC(=O)CCCCN(CCCC)C(=O)OCCN(CCCN(CC)CC)CCOC(=O)N(CCCC)CCCCC(=O)OCC(CCCCCC)CCCCCC [Example 24, Bis(2-hexyloctyl) 6,16-dibutyl-11-(3-(diethylamino)propyl)-7,15-dioxo-8,14-dioxa-6,11,16-triazahenicosanedioate] |  |  | 197 |  |  |  | 92 |  |  | 1.48 |
| CCCCCCN(CCCCCC(=O)OCC(CCCCC)CCCCC)C(=O)OCCN(CCOC(=O)N(CCCCCC)CCCCCC(=O)OCC(CCCCC)CCCCC)CCN(CC)CC [Example 25, Bis(2-pentylheptyl) 12-(2-(diethylamino)ethyl)-7,17-dihexyl-8,16-dioxo-9,15-dioxa-7,12,17-triazatricosanedioate] |  |  | 167 |  |  |  | 78 |  |  | 3.56 |

Continued, in another order:

| Particle size (nm) [1, 4] [nm] | Particle size (nm) [1, 5] [nm] | Particle size (nm) [1, 6] [nm] | Particle size (nm) [1, 7] [nm] | Nucleic acid encapsulation rate (%) (EPO mRNA; [4]) | Nucleic acid encapsulation rate (%) (EPO mRNA; [5]) | Nucleic acid encapsulation rate (%) (EPO mRNA; [6]) | Nucleic acid encapsulation rate (%) (EPO mRNA; [7]) | Structure (SMILES) | Relative amount of EPO protein (to Comparative Example 1) (ICR mice; [2]) | Relative amount of EPO protein (to Comparative Example 1) (ICR mice; [3]) |
| --- | --- | --- | --- | --- | --- | --- | --- | --- | --- | --- |
|  |  | 178 |  |  |  | 91 |  | CCCCCCN(CCCCCC(=O)OCC(CCCCC)CCCCC)C(=O)OCCN(CCCN(CC)CC)CCOC(=O)N(CCCCCC)CCCCCC(=O)OCC(CCCCC)CCCCC [Example 26, Bis(2-pentylheptyl) 12-(3-(diethylamino)propyl)-7,17-dihexyl-8,16-dioxo-9,15-dioxa-7,12,17-triazatricosanedioate] |  | 4.10 |
|  |  | 149 |  |  |  | 82 |  | CCCCCCCCCCOC(=O)CN(CC(=O)OCCCCCCCCCC)C(=O)OCCN(CCOC(=O)N(CC(=O)OCCCCCCCCCC)CC(=O)OCCCCCCCCCC)CCN(CC)CC [Example 27, Decyl 2-(2-(2-(bis(2-decoxy-2-oxo-ethyl)carbamoyloxy)ethyl-(2-(diethylamino)ethyl)amino)ethoxycarbonyl-(2-decoxy-2-oxo-ethyl)amino)acetate] |  | 3.85 |
|  |  | 155 |  |  |  | 78 |  | CCCCCCCCCCCOC(=O)CN(CC(=O)OCCCCCCCCCCC)C(=O)OCCN(CCOC(=O)N(CC(=O)OCCCCCCCCCCC)CC(=O)OCCCCCCCCCCC)CCN(CC)CC [Example 33, Diundecyl 8-(2-(diethylamino)ethyl)-4,12-dioxo-3,13-bis(2-oxo-2-(undecyloxy)ethyl)-5,11-dioxa-3,8,13-triazapentadecanedioate] |  | 2.90 |
|  |  | 165 |  |  |  | 93 |  | CCCCCCCCN(CCCCC(=O)OCC(CCCCC)CCCCC)C(=O)OCCN(CCCN(CC)CC)CCOC(=O)N(CCCCCCCC)CCCCC(=O)OCC(CCCCC)CCCCC [Example 35, Bis(2-pentylheptyl) 11-(3-(diethylamino)propyl)-6,16-dioctyl-7,15-dioxo-8,14-dioxa-6,11,16-triazahenicosanedioate] |  | 6.49 |
|  |  | 145 |  |  |  | 93 |  | CCCCCCCCN(CCCCC(=O)OCC(CCCCC)CCCCC)C(=O)OCCN(CCCCN(CC)CC)CCOC(=O)N(CCCCCCCC)CCCCC(=O)OCC(CCCCC)CCCCC [Example 36, Bis(2-pentylheptyl) 11-(4-(diethylamino)butyl)-6,16-dioctyl-7,15-dioxo-8,14-dioxa-6,11,16-triazahenicosanedioate] |  | 6.40 |
|  |  | 136 |  |  |  | 93 |  | CCCCCCCCN(CCCCC(=O)OCC(CCCCCC)CCCCCC)C(=O)OCCN(CCCN(CC)CC)CCOC(=O)N(CCCCCCCC)CCCCC(=O)OCC(CCCCCC)CCCCCC [Example 37, Bis(2-hexyloctyl) 11-(3-(diethylamino)propyl)-6,16-dioctyl-7,15-dioxo-8,14-dioxa-6,11,16-triazahenicosanedioate] |  | 11.39 |
